Paper PMC6783499, “Heteroglycoclusters With Dual Nanomolar Affinities for the Lectins LecA and LecB From Pseudomonas aeruginosa” (Frontiers in Chemistry, 2019)
Values joined by “and” are separate entries in the source; they are usually repeats but may differ in a detail not shown here. Equal values may be shown once.

Target: T1, LecA (Pseudomonas aeruginosa, UniProt Q05097)
T1 construct: made in house; host or cells: Escherichia coli BL21(DE3)
Assay: biochemical
Assay type: binding
Conditions: for –ΔH (binding enthalpy) / n (stoichiometry, glycocluster molecules per lectin monomer) / –ΔG / –ΔH / −TΔS: ITC; for n (stoichiometry, glycocluster molecules per lectin monomer) / –ΔG / –ΔH / −TΔS: 25°C; for n (stoichiometry, glycocluster molecules per lectin monomer): pH 7.5; for –ΔG / –ΔH / −TΔS: per mole of glycocluster; for α (relative potency compared to the monovalent compound) / β (relative potency per sugar unit): relative to βGal-OMe
Description: The resulting hGCs were tested in solution with lectins by Isothermal Titration Calorimetry (Table 1) and their binding properties were compared with homoclusters 15–20 (Berthet et al., [2013]; Thomas et al., [2015b]) displaying either 4 and 16 βGal or αFuc units attached with an oxime or a triazole linker (Figure 3). […] Experiments were performed in direct injection mode (i.e., ligand in syringe and protein in cell) to minimize aggregation problems.
All chemical reagents were purchased from Aldrich (Saint Quentin Fallavier, France) or Acros (Noisy-Le-Grand, France). All protected amino acids and Fmoc-Gly-Sasrin® resin was obtained from Advanced ChemTech Europe (Brussels, Belgium). For peptides and glycopeptides, analytical RP-HPLC was performed on Waters system equipped with a Waters 2695 separations module and a Waters 2487 Dual Absorbance UV/Visible Detector. Analysis was carried out at 1.0 mL/min (EC 125/3 nucleosil 300-5 C18) with UV monitoring at 214 nm and 250 nm using a linear A–B gradient (buffer A: 0.09% CF3CO2H in water; buffer B: 0.09% CF3CO2H in 90% acetonitrile). Purifications were carried out at 22.0 mL/min (VP 250/21 nucleosil 100-7 C18) with UV monitoring at 214 nm and 250 nm using a linear A–B gradient. HRMS and ESI-MS and HRMS spectra of peptides and glycopeptides were measured on an Esquire 3000 spectrometer from Bruker. Lectins LecA and LecB were produced in recombinant form in Escherichia coli BL21(DE3) as described previously (Mitchell et al., [2005]; Blanchard et al., [2008]).
Other compounds were assayed with a VP-ITC isothermal titration calorimeter (Microcal). The experiments were carried out at 25°C. All glycocompounds and lectins LecB and LecA were dissolved in the same buffer composed of 20 mM Tris with 100 mM NaCl and 0.1 mM CaCl2 at pH 7.5. For PEAQ-ITC, the lectins were placed in the microcalorimeter cell (200 μL) at concentrations varying from 35 to 70 μM. […] For VP-ITC, the microcalorimeter cell (1.447 mL) contained the lectins with concentrations between 30 and 100 μM. […] The experimental data were fitted to a theoretical titration curve using the Microcal PEAQ-ITC analysis software, with ΔH (enthalpy change), Ka (association constant), and N (number of binding sites per monomer) as adjustable parameters. Dissociation constant (Kd), free energy change (ΔG), and entropy contributions (TΔS) were derived from the previous ones. Two or three independent titrations were performed for each ligand tested.

T1 sequence (Q05097 whole entry): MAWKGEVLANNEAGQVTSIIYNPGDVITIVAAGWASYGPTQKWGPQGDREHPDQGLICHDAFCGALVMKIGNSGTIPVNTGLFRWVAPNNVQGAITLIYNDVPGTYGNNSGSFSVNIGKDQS

Row | SMILES | lower β factor than 18 (LecA, 20 versus 18) | –ΔH (binding enthalpy) (LecA) [kcal/mol] | n (stoichiometry, glycocluster molecules per lectin monomer) (LecA) | –ΔG (LecA) [kcal/mol] | –ΔH (LecA) [kcal/mol] | −TΔS (LecA) [kcal/mol] | binding to LecA in words (LecA, abstract) | α (relative potency compared to the monovalent compound) (LecA) | β (relative potency per sugar unit) (LecA) | Kd [nM]
1 | C[C@@H]1NC(=O)[C@H](CCCCNC(=O)/C=N/OCC(=O)NCCCC[C@@H]2NC(=O)[C@H](CCCCn3cc(CO[C@@H]4O[C@H](CO)[C@H](O)[C@H](O)[C@H]4O)nn3)NC(=O)CNC(=O)[C@@H]3CCCN3C(=O)[C@H](CCCCn3cc(CO[C@@H]4O[C@H](CO)[C@H](O)[C@H](O)[C@H]4O)nn3)NC(=O)[C@H](C)NC(=O)[C@H](CCCCn3cc(CO[C@@H]4O[C@H](CO)[C@H](O)[C@H](O)[C@H]4O)nn3)NC(=O)CNC(=O)[C@@H]3CCCN3C(=O)[C@H](CCCCn3cc(CO[C@@H]4O[C@H](CO)[C@H](O)[C@H](O)[C@H]4O)nn3)NC2=O)NC(=O)CNC(=O)[C@@H]2CCCN2C(=O)[C@H](CCCCNC(=O)/C=N/OCC(=O)NCCCC[C@@H]2NC(=O)[C@H](CCCCn3cc(CO[C@@H]4O[C@H](CO)[C@H](O)[C@H](O)[C@H]4O)nn3)NC(=O)CNC(=O)[C@@H]3CCCN3C(=O)[C@H](CCCCn3cc(CO[C@@H]4O[C@H](CO)[C@H](O)[C@H](O)[C@H]4O)nn3)NC(=O)[C@H](C)NC(=O)[C@H](CCCCn3cc(CO[C@@H]4O[C@H](CO)[C@H](O)[C@H](O)[C@H]4O)nn3)NC(=O)CNC(=O)[C@@H]3CCCN3C(=O)[C@H](CCCCn3cc(CO[C@@H]4O[C@H](CO)[C@H](O)[C@H](O)[C@H]4O)nn3)NC2=O)NC(=O)[C@H](CCCCN)NC(=O)[C@H](CCCCNC(=O)/C=N/OCC(=O)NCCCC[C@@H]2NC(=O)[C@H](CCCCn3cc(CO[C@@H]4O[C@H](CO)[C@H](O)[C@H](O)[C@H]4O)nn3)NC(=O)CNC(=O)[C@@H]3CCCN3C(=O)[C@H](CCCCn3cc(CO[C@@H]4O[C@H](CO)[C@H](O)[C@H](O)[C@H]4O)nn3)NC(=O)[C@H](C)NC(=O)[C@H](CCCCn3cc(CO[C@@H]4O[C@H](CO)[C@H](O)[C@H](O)[C@H]4O)nn3)NC(=O)CNC(=O)[C@@H]3CCCN3C(=O)[C@H](CCCCn3cc(CO[C@@H]4O[C@H](CO)[C@H](O)[C@H](O)[C@H]4O)nn3)NC2=O)NC(=O)CNC(=O)[C@@H]2CCCN2C(=O)[C@H](CCCCNC(=O)/C=N/OCC(=O)NCCCC[C@@H]2NC(=O)[C@H](CCCCn3cc(CO[C@@H]4O[C@H](CO)[C@H](O)[C@H](O)[C@H]4O)nn3)NC(=O)CNC(=O)[C@@H]3CCCN3C(=O)[C@H](CCCCn3cc(CO[C@@H]4O[C@H](CO)[C@H](O)[C@H](O)[C@H]4O)nn3)NC(=O)[C@H](C)NC(=O)[C@H](CCCCn3cc(CO[C@@H]4O[C@H](CO)[C@H](O)[C@H](O)[C@H]4O)nn3)NC(=O)CNC(=O)[C@@H]3CCCN3C(=O)[C@H](CCCCn3cc(CO[C@@H]4O[C@H](CO)[C@H](O)[C@H](O)[C@H]4O)nn3)NC2=O)NC1=O [Compound 20] | 2.5 | 90.3 | 0.09 | 10.7 | 90.49 ± 3.59 | 79.78 | nanomolar affinity | 10,000 and 10,714 | 670 | 
2 | C[C@@H]1NC(=O)[C@H](CCCCn2cc(CO[C@@H]3O[C@H](CO)[C@H](O)[C@H](O)[C@H]3O)nn2)NC(=O)CNC(=O)[C@@H]2CCCN2C(=O)[C@H](CCCCn2cc(CO[C@@H]3O[C@H](CO)[C@H](O)[C@H](O)[C@H]3O)nn2)NC(=O)[C@H](CCCCN)NC(=O)[C@H](CCCCn2cc(CO[C@@H]3O[C@H](CO)[C@H](O)[C@H](O)[C@H]3O)nn2)NC(=O)CNC(=O)[C@@H]2CCCN2C(=O)[C@H](CCCCn2cc(CO[C@@H]3O[C@H](CO)[C@H](O)[C@H](O)[C@H]3O)nn2)NC1=O [Compound 18] |  |  | 0.26 | 10.5 | 33.22 ± 0.24 | 22.8 |  | 7,000 and 6,818 | 1,700 and 1,705 | 
3 | CO[C@@H]1O[C@H](CO)[C@H](O)[C@H](O)[C@H]1O [βGal-OMe, methyl β-D-galactoside] |  |  |  |  |  |  |  | 1 | 1 | 
4 | C[C@@H]1NC(=O)[C@H](CCCCNC(=O)/C=N/O[C@H]2O[C@H](CO)[C@@H](O)[C@H](O)[C@@H]2O)NC(=O)CNC(=O)[C@@H]2CCCN2C(=O)[C@H](CCCCNC(=O)/C=N/O[C@H]2O[C@H](CO)[C@@H](O)[C@H](O)[C@@H]2O)NC(=O)[C@H](CCCCNC(=O)CO/N=C/C(=O)NCCCC[C@@H]2NC(=O)CNC(=O)[C@@H]3CCCN3C(=O)[C@H](CCCCNC(=O)/C=N/OCC(=O)NCCCC[C@@H]3NC(=O)[C@H](CCCCNC(=O)/C=N/O[C@H]4O[C@H](CO)[C@@H](O)[C@H](O)[C@@H]4O)NC(=O)CNC(=O)[C@@H]4CCCN4C(=O)[C@H](CCCCNC(=O)/C=N/O[C@H]4O[C@H](CO)[C@@H](O)[C@H](O)[C@@H]4O)NC(=O)[C@H](C)NC(=O)[C@H](CCCCNC(=O)/C=N/O[C@H]4O[C@H](CO)[C@@H](O)[C@H](O)[C@@H]4O)NC(=O)CNC(=O)[C@@H]4CCCN4C(=O)[C@H](CCCCNC(=O)/C=N/O[C@H]4O[C@H](CO)[C@@H](O)[C@H](O)[C@@H]4O)NC3=O)NC(=O)[C@H](CCCCN)NC(=O)[C@H](CCCCNC(=O)CO/N=C/C(=O)NCCCC[C@@H]3NC(=O)[C@H](CCCCn4cc(CO[C@@H]5O[C@H](CO)[C@H](O)[C@H](O)[C@H]5O)nn4)NC(=O)CNC(=O)[C@@H]4CCCN4C(=O)[C@H](CCCCn4cc(CO[C@@H]5O[C@H](CO)[C@H](O)[C@H](O)[C@H]5O)nn4)NC(=O)[C@H](C)NC(=O)[C@H](CCCCn4cc(CO[C@@H]5O[C@H](CO)[C@H](O)[C@H](O)[C@H]5O)nn4)NC(=O)CNC(=O)[C@@H]4CCCN4C(=O)[C@H](CCCCn4cc(CO[C@@H]5O[C@H](CO)[C@H](O)[C@H](O)[C@H]5O)nn4)NC3=O)NC(=O)CNC(=O)[C@@H]3CCCN3C(=O)[C@H](CCCCNC(=O)CO/N=C/C(=O)NCCCC[C@@H]3NC(=O)[C@H](CCCCn4cc(CO[C@@H]5O[C@H](CO)[C@H](O)[C@H](O)[C@H]5O)nn4)NC(=O)CNC(=O)[C@@H]4CCCN4C(=O)[C@H](CCCCn4cc(CO[C@@H]5O[C@H](CO)[C@H](O)[C@H](O)[C@H]5O)nn4)NC(=O)[C@H](C)NC(=O)[C@H](CCCCn4cc(CO[C@@H]5O[C@H](CO)[C@H](O)[C@H](O)[C@H]5O)nn4)NC(=O)CNC(=O)[C@@H]4CCCN4C(=O)[C@H](CCCCn4cc(CO[C@@H]5O[C@H](CO)[C@H](O)[C@H](O)[C@H]5O)nn4)NC3=O)NC(=O)[C@H](C)NC2=O)NC(=O)[C@H](CCCCNC(=O)/C=N/O[C@H]2O[C@H](CO)[C@@H](O)[C@H](O)[C@@H]2O)NC(=O)CNC(=O)[C@@H]2CCCN2C(=O)[C@H](CCCCNC(=O)/C=N/O[C@H]2O[C@H](CO)[C@@H](O)[C@H](O)[C@@H]2O)NC1=O [Compound 14] |  | 51.6 to 58.1 | 0.16 | 10.5 | 58.13 ± 4.54 | 47.6 |  | 7,142 | 900 and 893 | 21 ± 4
